Test results reported in patent US8772302B2, “GPR 119 agonists” (Cadila Healthcare Limited, priority 2009, dated 2014).
Read-outs that look alike come from different tables or passages of the source.

Key:
[1] = biological target: T1, recombinant human GPR 119 receptor (Homo sapiens, UniProt Q8TDV5); assay: cAMP assay in stable cell line expressing recombinant human GPR 119 receptor; assay type: cell-based; conditions: intracellular cAMP
T1 construct: expressed in transfected cells
T1 sequence (Q8TDV5 1-335): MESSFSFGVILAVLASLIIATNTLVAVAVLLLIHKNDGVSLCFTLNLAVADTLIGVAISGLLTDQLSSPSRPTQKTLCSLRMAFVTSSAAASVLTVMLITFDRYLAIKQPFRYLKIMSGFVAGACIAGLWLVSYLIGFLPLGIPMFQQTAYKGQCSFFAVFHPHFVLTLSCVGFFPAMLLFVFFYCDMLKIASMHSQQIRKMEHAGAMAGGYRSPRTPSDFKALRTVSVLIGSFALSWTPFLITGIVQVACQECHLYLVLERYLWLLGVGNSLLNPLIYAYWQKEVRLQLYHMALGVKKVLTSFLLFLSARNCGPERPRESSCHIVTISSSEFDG
Excerpt: cAMP assay: A stable cell line expressing recombinant human GPR 119 receptor was established and used to investigate the efficacy of the compounds of the invention based on the intracellular levels of cyclic AMP (cAMP) using commercially available cAMP kits. Compounds of the invention produced a concentration dependent increase in cAMP level and EC50 values of representative compounds were provided in table 1.

C57/BL6 mice = assay: Oral glucose tolerance test (OGTT) in C57/BL6 mice; assay type: in vivo, mouse; conditions: Mus musculus, 2 h, serum glucose AUC, single oral dose, glucose load 3 gm/kg, read-out: % reduction in AUC at 50 mg/kg
Experimental: Oral Glucose Tolerance Tests (OGTT) in C57/BL6 Mice:
C57/BL6 mice of 6-8 week age are used for this experiment. Animals are grouped based on non-fasting serum glucose levels and kept on fasting for overnight (day before OGTT). On the experiment day, […], 30 min post dosing animals are bled for basal glucose level estimation and at the same time glucose load (3 gm/kg) will be administered per orally. Blood is collected at time points corresponding to 20, 40, 60 and 120 min after glucose load administration. Serum is separated for determination of glucose levels and change in area under curve for glucose is calculated and provided in table 4 as % reduction in AUC.

Sprague Dawley rats = assay: Feed intake in Sprague Dawley rats; assay type: in vivo, rat; conditions: Rattus norvegicus, cumulative feed intake vs vehicle; for inhibition in vivo at 25 mg/kg: ip, intraperitoneal; for inhibition in vivo at 50 mg/kg: oral
Excerpt: In Vivo Efficacy Studies: Feed Intake in Sprague Dawley Rats:
Sprague Dawley rats of 6-8 week age are used for this experiment they are kept for acclimatization in reversed light/dark cycle for 15 days. Animals will have free access to a standard chow diet and water during acclimatization period. After 15 days reversed light/dark cycle acclimatization animals are trained for fasting induced feed intake for 5 days till they show consistent feed intake. Grouping was done based on the monitored feed intake during the training days. On treatment day each group of animals are dosed with test compound or vehicle by appropriate routes of administration (orally or intraperitoneally). Exactly 30 min. after treatment, measured amount of standard chow diet is provided and recorded as O-min feed offered. Then subsequently 2, 4, 6 and 24 hour after O-min, feed intake is measured and the cumulative feed intakes are calculated. The change in cumulative feed intake as compared to vehicle treated control at each time point is calculated for test compound.

[2] = 2 hour, read-out: % reduction in food in take, 2 hour
[3] = 4 hour, read-out: % reduction in food in take, 4 hour
[4] = 6 hour, read-out: % reduction in food in take, 6 hour
[5] = 24 hour, read-out: % reduction in food in take, 24 hour

SMILES	EC50 [1] [nM]	inhibition in vivo at 50 mg/kg (C57/BL6 mice) [%]	inhibition in vivo at 25 mg/kg (Sprague Dawley rats; [2]) [%]	inhibition in vivo at 25 mg/kg (Sprague Dawley rats; [3]) [%]	inhibition in vivo at 25 mg/kg (Sprague Dawley rats; [4]) [%]	inhibition in vivo at 25 mg/kg (Sprague Dawley rats; [5]) [%]	inhibition in vivo at 50 mg/kg (Sprague Dawley rats; [2]) [%]	inhibition in vivo at 50 mg/kg (Sprague Dawley rats; [3]) [%]	inhibition in vivo at 50 mg/kg (Sprague Dawley rats; [4]) [%]	inhibition in vivo at 50 mg/kg (Sprague Dawley rats; [5]) [%]
Cc1c(Oc2ccc([C@H]3CO[S@](=O)OC3)cc2)ncnc1OC1CCN(C(=O)OCC(C)C)CC1 [Example 28, trans-isobutyl 4-((5-methyl-6-(4-(2-oxido-1,3,2-dioxathian-5-yl)phenoxy)pyrimidin-4-yl)oxy)piperidine-1-carboxylate]	57	40	67	59	40	24	24	19	9	2
CCc1cnc(N2CCC(Oc3ncnc(Oc4ccc(C[C@H]5CO[S@](=O)OC5)cc4)c3C)CC2)nc1 [Example 32, trans-5-(4-((6-((1-(5-ethylpyrimidin-2-yl)piperidin-4-yl)oxy)-5-methylpyrimidin-4-yl)oxy)benzyl)-1,3,2-dioxathiane 2-oxide]	86	41	50	37	32	18	–	–	–	–
CCOC(=O)N1CCC(Oc2ncnc(Oc3ccc([C@H]4CO[S@@](=O)OC4)cc3)c2C)CC1 [Example 33, cis-ethyl 4-((5-methyl-6-(4-(2-oxido-1,3,2-dioxathian-5-yl)phenoxy)pyrimidin-4-yl)oxy)piperidine-1-carboxylate]	86	30	70	44	24	21	–	–	–	–
CCOC(=O)N1CCC(Oc2ncnc(Oc3ccc([C@H]4CO[S@](=O)OC4)cc3)c2C)CC1 [Example 34, trans-ethyl 4-((5-methyl-6-(4-(2-oxido-1,3,2-dioxathian-5-yl)phenoxy)pyrimidin-4-yl)oxy)piperidine-1-carboxylate]	93	27	45	30	19	10	–	–	–	–
Cc1c(Oc2ccc(C[C@H]3CO[S@](=O)OC3)cc2)ncnc1OC1CCN(C(=O)OCC(C)C)CC1 [Example 44, trans-isobutyl 4-((5-methyl-6-(4-((2-oxido-1,3,2-dioxathian-5-yl)methyl)phenoxy)pyrimidin-4-yl)oxy)piperidine-1-carboxylate]	108	31	–	–	–	–	38	30	24	7
